Reference: ChEMBL document CHEMBL1201862, “PubChem BioAssay data set” (2004)
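Where inhibition never reached the appropriate level, the endpoint shown equals the highest concentration tested. Otherwise, values were interpolated linearly from a five-concentration, 48-hour dose response in 96-well plates. The concentration for 50% growth inhibition is given as GI50.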 Activity calls are given as the source filed them. No stated cut-off is given here; in the data, active = GI50 up to about 1.1 µM and inactive = higher.

How the values were obtained:
Assay in all cases: DTP human tumour cell line panel, 48 h
[1] = tested on: ACHN
[2] = tested on: COLO 205
[3] = tested on: EKVX
[4] = tested on: HCC 2998
[5] = tested on: MCF7
[6] = tested on: Malme-3M
[7] = tested on: NCI-H23
[8] = tested on: NCI/ADR-RES
[9] = tested on: OVCAR-4
[10] = tested on: OVCAR-5
[11] = tested on: OVCAR-8
[12] = tested on: RPMI-8226
[13] = tested on: RXF 393
[14] = tested on: SF-268
[15] = tested on: SF-295
[16] = tested on: SK-MEL-28
[17] = tested on: SK-MEL-2
[18] = tested on: SNB-75
[19] = tested on: UACC-62
[20] = tested on: IGROV-1

Measured: GI50

O=c1cccc2n1C[C@H]1CNC[C@H]2C1
inactive: [1] > 100 µM | [2] > 100 µM | [3] > 100 µM | [4] > 100 µM | [5] > 100 µM | [6] > 100 µM | [7] > 100 µM | [8] > 100 µM | [9] > 100 µM | [10] > 100 µM | [11] > 100 µM | [12] > 100 µM | [13] 47 µM | [14] > 100 µM | [15] > 100 µM | [16] > 100 µM | [17] > 100 µM | [18] > 100 µM | [19] > 100 µM

CCSc1ncnc2c(C3OC(CO)C(O)C3O)nsc12 (configuration not stated)
inactive: [2] > 100 µM | [3] > 100 µM | [4] 99.1 µM | [20] > 100 µM | [5] > 100 µM | [6] > 100 µM | [8] > 100 µM | [9] > 100 µM | [10] > 100 µM | [11] > 100 µM | [13] > 100 µM | [14] > 100 µM | [15] > 100 µM | [16] > 100 µM | [17] > 100 µM | [18] > 100 µM

O=NN(CCF)C(=O)NC1CCSCC1
inactive: [2] > 100 µM | [4] > 100 µM | [20] > 100 µM | [5] > 100 µM | [6] > 100 µM | [7] > 100 µM | [8] > 100 µM | [9] > 100 µM | [10] > 100 µM | [11] > 100 µM | [12] > 100 µM | [13] > 100 µM | [14] > 100 µM | [15] > 100 µM | [16] > 100 µM | [17] > 100 µM | [18] > 100 µM | [19] > 100 µM

Cc1ccc2c(c1)/C(=N/Nc1ccccc1[N+](=O)[O-])C(=O)N2
inactive: [2] 14.6 µM | [3] 2.65 µM | [4] > 100 µM | [20] 1.68 µM | [5] 12 µM | [6] 3.48 µM | [7] 7.76 µM | [8] 3.72 µM | [9] 2.37 µM | [10] 10.9 µM | [11] 3.45 µM | [12] 6.73 µM | [13] 6.52 µM | [14] 3.4 µM | [15] 14.5 µM | [16] > 100 µM | [17] > 100 µM | [18] 5.33 µM | [19] 35.5 µM

COc1nc(O)c(N)c(NC2OC(CO)C(O)C(O)C2O)n1 (configuration not stated)
inactive: [2] > 100 µM | [3] > 100 µM | [4] > 100 µM | [20] > 100 µM | [5] > 100 µM | [6] > 100 µM | [7] > 100 µM | [8] > 100 µM | [9] > 100 µM | [10] > 100 µM | [11] > 100 µM | [12] > 100 µM | [13] > 100 µM | [14] > 100 µM | [15] > 100 µM | [16] > 100 µM | [17] > 100 µM | [18] > 100 µM | [19] > 100 µM

O=C(O)C1Cc2c([nH]c3ccccc23)C=N1 (configuration not stated)
inactive: [2] > 100 µM | [3] > 100 µM | [4] > 100 µM | [20] > 100 µM | [5] > 100 µM | [6] > 100 µM | [7] > 100 µM | [8] > 100 µM | [9] > 100 µM | [10] > 100 µM | [11] > 100 µM | [12] > 100 µM | [13] > 100 µM | [14] > 100 µM | [15] > 100 µM | [16] > 100 µM | [17] > 100 µM | [18] > 100 µM | [19] > 100 µM

O=C(NCCNCCCNC(=O)c1cc(-c2ccccc2)nc2ccccc12)c1cccc(OCc2ccccc2)c1OCc1ccccc1
inactive: [1] 1.73 µM | [2] 1.69 µM | [3] 1.69 µM | [4] 1.26 µM | [20] 1.85 µM | [5] 1.66 µM | [6] 2.07 µM | [7] 1.83 µM | [8] 1.87 µM | [9] 1.64 µM | [10] 1.91 µM | [11] 1.71 µM | [12] 2.48 µM | [13] 2.13 µM | [14] 1.88 µM | [15] 1.64 µM | [16] 1.81 µM | [18] 1.87 µM | [19] 1.93 µM

CC1(C)N=C(C2CCCN2C(=O)OCc2ccccc2)OC1=O (configuration not stated)
inactive: [1] > 100 µM | [2] > 100 µM | [4] > 100 µM | [20] > 100 µM | [5] > 100 µM | [6] > 100 µM | [7] > 100 µM | [8] > 100 µM | [10] > 100 µM | [11] > 100 µM | [12] > 100 µM | [13] 30 µM | [14] > 100 µM | [15] > 100 µM | [16] > 100 µM | [17] > 100 µM | [18] > 100 µM | [19] > 100 µM
